We go through one substance from US5951981A, “Thrombolytic agents with antithrombotic activity” (Diatide, Inc., priority 1996, dated 1999).

The assay relates to human platelets in platelet-rich plasma (PRP). Kind of assay: Platelet aggregation inhibition assay (ADP-induced, aggregometer). In kind it is cell-based. Particulars: fresh human PRP, 250,000 platelets/μL; aggregation induced with 20 micromolar ADP at 37° C.; inhibitor added about 1 min before ADP; read-out: IC50 (concentration of inhibitor that reduced the extent of platelet aggregation by 50%). The method, then:
Platelet aggregation studies were performed essentially as described by Zucker (1989, Methods in Enzymol. 169: 117-133). Briefly, platelet aggregation was assayed with or without putative platelet aggregation inhibitory compounds using fresh human platelet-rich plasma (PRP), comprising 250,000 platelets per microlitre. Whole human blood (36 mL) were freshly drawn from volunteers who were medication-free for at least 2 weeks prior to blood draw. Blood was drawn into 4 mL of a 0.1M sodium citrate solution and centrifuged (150 g for 20 min at 22° C.) to pellet red blood cells. The supernatant, comprising PRP, was removed and the remaining blood recentrifuged at 8000 g for 10 min to produce platelet-poor plasma (PPP; used to dilute the PRP to a final concentration of 250,000 platelets/μL). Alternatively, PPP was prepared by centrifugation of PRP for 1 min in a tabletop microcentrifuge. PPP is also used as a negative control for platelet aggregation.
Platelet aggregation was induced by the addition at 37° C. of a solution of adenosine diphosphate to a final concentration of 20 micromolar, and the extent of platelet aggregation monitored using a four channel aggregometer (Model IV Plus, Helena Laboratories, Beaumont, Tex.). […] Inhibition curves for a variety of disintegrins comprising the peptide sequence RGD was determined for each batch of platelets tested as positive controls.

“CH2 CO-YD .Amp.GDCKGCG.amide [P734 peptide]”: the IC50 was found to be 67 nM.
